# Reference: US11358969B2, “Indole AHR inhibitors and uses thereof” (Ikena Oncology, Inc., priority 2017, dated 2022)
# Molecular target: T1, AHR (UniProt P35869)
# T1 construct: IC50
# T1 sequence (P35869 1-848): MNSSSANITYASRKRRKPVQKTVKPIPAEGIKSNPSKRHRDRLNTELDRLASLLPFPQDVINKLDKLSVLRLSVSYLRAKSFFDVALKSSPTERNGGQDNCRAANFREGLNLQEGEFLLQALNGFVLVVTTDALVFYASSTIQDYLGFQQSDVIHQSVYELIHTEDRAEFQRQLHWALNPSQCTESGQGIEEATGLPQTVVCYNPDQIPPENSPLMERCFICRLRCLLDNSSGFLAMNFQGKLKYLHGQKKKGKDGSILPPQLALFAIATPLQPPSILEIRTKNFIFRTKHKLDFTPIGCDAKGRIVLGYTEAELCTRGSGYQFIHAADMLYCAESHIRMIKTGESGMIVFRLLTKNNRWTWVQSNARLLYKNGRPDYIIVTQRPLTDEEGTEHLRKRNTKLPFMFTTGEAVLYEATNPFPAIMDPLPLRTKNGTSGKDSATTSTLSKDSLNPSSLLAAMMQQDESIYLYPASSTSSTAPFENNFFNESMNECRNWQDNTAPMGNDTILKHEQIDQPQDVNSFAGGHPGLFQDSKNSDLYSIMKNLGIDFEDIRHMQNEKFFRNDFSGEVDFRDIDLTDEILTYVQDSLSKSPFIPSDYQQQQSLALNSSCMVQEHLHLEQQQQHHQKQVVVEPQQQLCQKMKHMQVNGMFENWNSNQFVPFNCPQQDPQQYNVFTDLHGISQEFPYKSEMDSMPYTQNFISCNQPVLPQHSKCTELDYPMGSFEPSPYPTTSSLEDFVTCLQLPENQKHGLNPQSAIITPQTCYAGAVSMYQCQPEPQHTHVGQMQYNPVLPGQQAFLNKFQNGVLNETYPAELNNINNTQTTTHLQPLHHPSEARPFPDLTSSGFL
# Experiment: DRE-Luciferase Reporter Assay (Alternate Method) (Example 1B)
# Type: cell-based, murine or human
# Conditions: cell line and AHR activating ligand not specified
# Protocol: AHR binds to Dioxin Responsive Elements (DRE) upstream of genes that it activates. One measure of AHR activity is activation of a reporter gene, such as luciferase, downstream of one or multiple DRE elements. Luciferase activity will reflect activation and inhibition of AHR in the cells expressing his reporter.
# Murine Hepa1-6 or Hepa-1c1c7 or other murine cell line with a DRE-luciferase reporter either stably or transiently transfected were plated in media in plates (96-well, 384-well or other plates) and incubated overnight at 37° C. in a CO2 incubator or compound and agonist were added at the time of plating. Likewise, human HepG2 or other human cell line with a DRE-luciferase reporter either stably or transiently transfected were plated in media in plates (96-well, 384-well or other plates) and incubated overnight at 37° C. in a CO2 incubator or compound and agonist were added at the time of plating.
# At the time that cells are plated or following incubation overnight, an AHR activating ligand, such as TCDD, kynurenine, ITE (2-(1H-indole-3-ylcarbonyl)-4-thiazolecarboxylic methyl ester), VAF347, BNF (beta-naphthoflavone), FICZ (6-formylindolo(3,2-b) carbazole or other AHR ligands, was added with or without AHR antagonist.
# Cells were incubated for 4, 15 or 24 hours or another time point and then lysed for determination of luciferase activity as a read-out of the AHR activation or inhibition. Luciferase was measured with a commercial kit such as the Promega Luciferase kit or any kit or reagents that provide the luciferin substrate for measuring luciferase activity. The level of luciferase with only activating ligand added was the maximum signal while the luciferase with no ligand was the minimum signal. IC50 values were determined as the concentration which inhibits half of the luciferase activity.
row,Compound,IC50
1,Fc1cncc(-c2nc(NC3CCc4[nH]c5ccccc5c4C3)n3ncc(-c4cnc[nH]4)c3n2)c1 (stereo not drawn) [I-274],< 0.5 µM
2,CC(C)c1cnn2c(NCCc3c[nH]c(N)n3)nc(-c3cncc(F)c3)nc12 [I-266],> 1.5 µM
3,"Cc1[nH]c2c(F)cc(F)cc2c1CCNc1cc(-c2cncc(F)c2)nc2ccnn12 [I-85, N-(2-(5,7-Difluoro-2-methyl-1H-indol-3-yl)ethyl)-5-(5-fluoropyridin-3-yl)pyrazolo[1,5-a]pyrimidin-7-amine]",0.5 to 1 µM
4,"CC(C)c1cnn2c(N[C@@H]3CCc4[nH]c5ccccc5c4C3)nc(-c3cncnc3)nc12 [I-270, (3R)—N-(8-Isopropyl-2-pyrimidin-5-yl-pyrazolo[1,5-a][1,3,5]triazin-4-yl)-2,3,4,9-tetrahydro-1H-carbazol-3-amine]",< 0.5 µM
5,Cc1cnn2c(NCCc3c[nH]cn3)cc(-c3cncc(F)c3)nc12 [I-207],> 1.5 µM
6,"CC(C)c1cnn2c(NCCc3c[nH]c4ccccc34)cc(-c3cccc(F)c3)nc12 [I-242, 5-(3-fluorophenyl)-N-[2-(1H-indol-3-yl)ethyl]-3-isopropyl-pyrazolo[1,5-a]pyrimidin-7-amine]",< 0.5 µM
7,Fc1cncc(-c2nc(NC3CCc4[nH]c5ccccc5c4C3)n3ncc(-c4ncc[nH]4)c3n2)c1 (stereo not drawn) [I-273],1 to 1.5 µM
8,"Cc1cnn2c(NCCc3c[nH]c4c(O)cccc34)cc(-c3cncc(F)c3)nc12 [I-172, 3-[2-[[5-(5-Fluoro-3-pyridyl)-3-methyl-pyrazolo[1,5-a]pyrimidin-7-yl]amino]ethyl]-1H-indol-7-ol]",1 to 1.5 µM
9,O=C(O)c1cnn2c(NCCc3c[nH]c4c(O)cccc34)cc(-c3cncc(F)c3)nc12 [I-142],> 1.5 µM
10,"Cc1cnn2c(NCC(C)c3c[nH]c4ccccc34)cc(-c3cncc(F)c3)nc12 (stereo not drawn) [I-171, 5-(5-Fluoro-3-pyridyl)-N-[2-(1H-indol-3-yl)propyl]-3-methyl-pyrazolo[1,5-a]pyrimidin-7-amine]",1 to 1.5 µM
11,O=C(O)c1cnn2c(NCCc3c[nH]c4ccc(O)cc34)cc(-c3cncc(F)c3)nc12 [I-168],> 1.5 µM
12,CNC(=O)c1cnn2c(NC3CCc4[nH]c5ccccc5c4C3)nc(-c3cncc(F)c3)nc12 (stereo not drawn) [I-283],> 1.5 µM
13,Cc1cnn2c(NCC3(c4c[nH]c5ccccc45)CC3)cc(-c3cncc(F)c3)nc12 [I-167],> 1.5 µM
14,"Cc1cnn2c(NCCc3cc[nH]n3)cc(-c3cncc(F)c3)nc12 [I-180, 5-(5-Fluoro-3-pyridyl)-3-methyl-N-[2-(1H-pyrazol-3-yl)ethyl]pyrazolo[1,5-a]pyrimidin-7-amine]",0.5 to 1 µM
15,"CC(C)c1cnn2c(NCCc3c[nH]c4ccccc34)cc(-c3ccc4c(c3)OCO4)nc12 [I-246, 5-(1,3-Benzodioxol-5-yl)-N-[2-(1H-indol-3-yl)ethyl]-3-isopropyl-pyrazolo[1,5-a]pyrimidin-7-amine]",1 to 1.5 µM
16,"Cc1cnn2c(NCCc3cccc(O)c3)cc(-c3cncc(F)c3)nc12 [I-210, 3-[2-[[5-(5-fluoro-3-pyridyl)-3-methyl-pyrazolo[1,5-a]pyrimidin-7-yl]amino]ethyl]phenol]",1 to 1.5 µM
17,"COc1ccccc1-c1cc(NCCc2c[nH]c3ccccc23)n2ncc(C(C)C)c2n1 [I-240, N-[2-(1H-indol-3-yl)ethyl]-3-isopropyl-5-(2-methoxyphenyl)pyrazolo[1,5-a]pyrimidin-7-amine]",> 1.5 µM
18,"Cc1[nH]c2c(F)cc(F)cc2c1CCNc1cc(-c2cncc(F)c2)nc2c(C(C)(C)C)cnn12 [I-91, 3-tert-Butyl-N-[2-(5,7-difluoro-2-methyl-1H-indol-3-yl)ethyl]-5-(5-fluoro-3-pyridyl)pyrazolo[1,5-a]pyrimidin-7-amine]",< 0.5 µM

# Results, then the molecule that gave them:
row,IC50,Compound
1,< 0.5 µM,"Cc1cc(CCNc2cc(-c3cncc(F)c3)nc3c(C(C)C)cnn23)ccc1O [I-102, 4-[2-[[5-(5-Fluoro-3-pyridyl)-3-isopropyl-pyrazolo[1,5-a]pyrimidin-7-yl]amino]ethyl]-2-methyl-phenol]"
2,< 0.5 µM,"C=Cc1cnn2c(NCCc3c[nH]c4ccccc34)cc(-c3cncc(F)c3)nc12 [I-230, 5-(5-Fluoro-3-pyridyl)-N-[2-(1H-indol-3-yl)ethyl]-3-vinyl-pyrazolo[1,5-a]pyrimidin-7-amine]"
3,> 1.5 µM,"O=C(c1cnn2c(NCCc3c[nH]c4ccccc34)cc(-c3cncc(F)c3)nc12)N1CCNCC1 [I-58, [5-(5-Fluoro-3-pyridyl)-7-[2-(1H-indol-3-yl)ethylamino]pyrazolo[1,5-a]pyrimidin-3-yl]-piperazin-1-yl-methanone]"
4,> 1.5 µM,Cc1cnn2c(N[C@@H]3CCc4[nH]c5c(F)cc(F)cc5c4C3)cc(-c3cncc(F)c3)nc12 [I-243a]
5,> 1.5 µM,Cc1cnn2c(N[C@H]3CCc4[nH]c5c(F)cc(F)cc5c4C3)cc(-c3cncc(F)c3)nc12 [I-243b]
6,< 0.5 µM,"Cc1cnn2c(NCC(=O)c3c[nH]c4ccccc34)cc(-c3cncc(F)c3)nc12 [I-163, 2-[[5-(5-Fluoro-3-pyridyl)-3-methyl-pyrazolo[1,5-a]pyrimidin-7-yl]amino]-1-(1H-indol-3-yl)ethanone]"
7,> 1.5 µM,"Cc1cnn2c(NCCc3c[nH]c4ccc(O)cc34)cc(-c3cncc(F)c3)nc12 [I-215, 3-[2-[[5-(5-Fluoro-3-pyridyl)-3-methyl-pyrazolo[1,5-a]pyrimidin-7-yl]amino]ethyl]-1H-indol-5-ol]"
8,1 to 1.5 µM,"CC(C)c1cnn2c(NC3Cc4[nH]c5ccccc5c4C3)nc(-c3cncc(F)c3)nc12 (stereo in doubt) [I-263a, (2S)—N-[2-(5-Fluoro-3-pyridyl)-8-isopropyl-pyrazolo[1,5-a][1,3,5]triazin-4-yl]-1,2,3,4-tetrahydrocyclopenta[b]indol-2-amine]"
9,> 1.5 µM,CC(C)Oc1cc(-c2cncc(F)c2)nc(N[C@@H]2CCc3[nH]c4ccccc4c3C2)n1 [I-134]
10,> 1.5 µM,"CC(C)c1cnn2c(C(=O)NCc3ccc(O)cc3)cc(-c3cncc(F)c3)nc12 [I-100, 5-(5-Fluoro-3-pyridyl)-N-[(4-hydroxyphenyl)methyl]-3-isopropyl-pyrazolo[1,5-a]pyrimidine-7-carboxamide]"
11,> 1.5 µM,"Fc1cncc(-c2cc(NC3Cc4cc5c(cc4C3)OCO5)n3nccc3n2)c1 [I-50, N-(6,7-Dihydro-5H-cyclopenta[f][1,3]benzodioxol-6-yl)-5-(5-fluoro-3-pyridyl)pyrazolo[1,5-a]pyrimidin-7-amine]"
12,> 1.5 µM,"CC(C)c1cnn2c(C(=O)NCc3cccc(O)c3)cc(-c3cncc(F)c3)nc12 [I-95, 5-(5-Fluoro-3-pyridyl)-N-[(3-hydroxyphenyl)methyl]-3-isopropyl-pyrazolo[1,5-a]pyrimidine-7-carboxamide]"
13,> 1.5 µM,Cc1cnn2c(NCCc3ccc(O)nc3)cc(-c3cncc(F)c3)nc12 [I-194]
14,< 0.5 µM,"CCc1cnn2c(NCCc3c[nH]c4ccccc34)cc(-c3cncc(F)c3)nc12 [I-237, 3-Ethyl-5-(5-fluoro-3-pyridyl)-N-[2-(1H-indol-3-yl)ethyl]pyrazolo[1,5-a]pyrimidin-7-amine]"
15,> 1.5 µM,Cc1cnn2c(N[C@H]3CCc4[nH]c5c(F)cccc5c4C3)cc(-c3cncc(F)c3)nc12 [I-216b]
16,> 1.5 µM,Cc1cnn2c(NCCc3cn[nH]c3)cc(-c3cncc(F)c3)nc12 [I-173]
17,> 1.5 µM,CC(=O)Nc1ccc(CCNc2cc(-c3cncc(F)c3)nc3c(C)cnn23)cc1 [I-206]
18,> 1.5 µM,CC(C)c1cnn2c(NC3CCc4[nH]c5ccccc5c4C3)nc(-c3cccc(OC(F)(F)F)c3)nc12 (stereo not drawn) [I-261]
